{"source": "paper PMC6990966", "about": "“Treatment of Porphyromonas gulae infection and downstream pathology in the aged dog by lysine‐gingipain inhibitor COR388” (Pharmacology Research & Perspectives, 2020)", "key": {"[1]": {"test_system": "P. gulae", "experiment": "qPCR detection of P. gulae load in oral samples of naturally infected aged dogs", "type": "in vivo, Beagle dogs", "experimental": "(§1) Aged Beagle dogs of both sexes ranging from 8 to 15 years of age, in generally good health and located in the Vivocore Inc dog colony, were utilized in this study. All procedures were reviewed and approved by Vivocore's Institutional Animal Care and Use Committee (IACUC) and were performed in accordance with the principles of the Animal for Research Act of Ontario and the guidelines of Canadian Council on Animal Care (CCAC). Structure‐based design was used to develop a library of gingipain inhibitors, which were tested on purified Kgp and RgpB to assess potency and determine inhibition constants. […] In the first study, four dogs were dosed 10 mg kg^−1 q.d. with endpoints assessed after dosing and compared to those taken pre‐dose in individual dogs. […]\nBiofluids were evaluated for P. gulae load using a qPCR assay that was developed to specifically detect P. gulae 16S gene with the following primers and probe: Forward primer […], Reverse primer […], and probe […]. […] Saliva was evaluated with either 2 μL neat saliva or purified DNA from 2 μL saliva. Buccal cells were evaluated with either 2 μL neat buccal cell slurry or purified DNA from 2 μL buccal cell slurry. SGP was evaluated with 2 μL from the elution in B‐Per. GCF was evaluated with either purified DNA from 50 μL of B‐Per eluted GCF or neat 2 μL elution."}, "[2]": {"test_system": "periodontal disease (pocket depth)", "experiment": "Dental assessment of gingival pocket depth", "type": "in vivo, Beagle dogs", "settings": "oral 0.5 mg kg^−1 b.i.d., day 90 vs baseline", "experimental": "Aged Beagle dogs of both sexes ranging from 8 to 15 years of age, in generally good health and located in the Vivocore Inc dog colony, were utilized in this study. All procedures were reviewed and approved by Vivocore's Institutional Animal Care and Use Committee (IACUC) and were performed in accordance with the principles of the Animal for Research Act of Ontario and the guidelines of Canadian Council on Animal Care (CCAC). Structure‐based design was used to develop a library of gingipain inhibitors, which were tested on purified Kgp and RgpB to assess potency and determine inhibition constants. The detailed chemical synthesis and structure of compounds in the relevant series of lysine‐gingipain inhibitors including COR388 can be found in PCT/2016/0061197. Detailed characterization of COR388 enzyme target binding, potency, and selectivity are previously described.1 Test article administered, COR388 HCl, was a solid powdered material. Dogs were dosed with neat compound hand‐filled in gelatin capsules (size 1, Torpac) orally at the listed doses (free‐base, corrected for salt form). All dogs utilized in studies were positive on previous BANA enzyme (BANAMet LLC, Ann Arbor, MI) testing of oral plaque samples (assay described below). In the first study, four dogs were dosed 10 mg kg^−1 q.d. with endpoints assessed after dosing and compared to those taken pre‐dose in individual dogs. […]"}, "[3]": {"parameters": "method as in PMID 30746447", "settings": "mice; cited from earlier work"}, "[4]": {"test_system": "RgpB", "experiment": "Rgp enzyme activity assay in SGP of dosed dogs", "type": "in vivo, Beagle dogs", "settings": "oral 10 mg kg^−1 q.d. for 28 days", "experimental": "as §1, with “constants. The detailed chemical synthesis and structure of compounds in the relevant series of lysine‐gingipain inhibitors including COR388 can be found in PCT/2016/0061197.” for “constants.”\nFor the detection of arginine‐gingipain (Rgp) activity, cysteine‐HCl was freshly added to RgpB buffer (100 mmol L^−1 Tris, 200 mmol L^−1 gly‐gly, 5 mmol L^−1 CaCl2) to a final concentration of 10 mmol L^−1 to produce a RgpB working enzyme assay buffer. […] After 50 μL of substrate solution was added, the plate was immediately read at 405 nm for 1 hour with interval of every 1.5 minutes read at 37°C and continuous shaking in Biotek Synergy 2 microplate reader. […]"}, "[5]": {"test_system": "P. gingivalis cultures", "settings": "P. gingivalis cultures in vitro; cited from earlier work"}, "[6]": {"experiment": "Plasma pharmacokinetics after single intravenous dose", "type": "in vivo, Beagle dogs", "settings": "both sexes, Beagle, dog, single intravenous dose 1 mg kg^−1 in PBS, mean ± SD"}, "[7]": {"test_system": "Kgp", "experiment": "Kgp activity in GCF of dosed dogs using COR553 activity-based probe", "type": "in vivo, Beagle dogs", "experimental": "Aged Beagle dogs of both sexes ranging from 8 to 15 years of age, in generally good health and located in the Vivocore Inc dog colony, were utilized in this study. All procedures were reviewed and approved by Vivocore's Institutional Animal Care and Use Committee (IACUC) and were performed in accordance with the principles of the Animal for Research Act of Ontario and the guidelines of Canadian Council on Animal Care (CCAC). Structure‐based design was used to develop a library of gingipain inhibitors, which were tested on purified Kgp and RgpB to assess potency and determine inhibition constants. The detailed chemical synthesis and structure of compounds in the relevant series of lysine‐gingipain inhibitors including COR388 can be found in PCT/2016/0061197. Detailed characterization of COR388 enzyme target binding, potency, and selectivity are previously described.1 Test article administered, COR388 HCl, was a solid powdered material. Dogs were dosed with neat compound hand‐filled in gelatin capsules (size 1, Torpac) orally at the listed doses (free‐base, corrected for salt form). All dogs utilized in studies were positive on previous BANA enzyme (BANAMet LLC, Ann Arbor, MI) testing of oral plaque samples (assay described below). In the first study, four dogs were dosed 10 mg kg^−1 q.d. with endpoints assessed after dosing and compared to those taken pre‐dose in individual dogs. The second dose‐response study was conducted with a randomized, blinded, matched‐group design with 12 dogs. Following baseline sample collections prior to dosing, animals were allocated to four dosing groups, n = 3 dogs per group as follows: vehicle (empty capsule), 0.15, 0.5, and 1.5 mg kg^−1 b.i.d (Q12h). Dosing continued for 28 days (0.15 and 1.5 mg kg^−1) or 90 days (vehicle and 0.5 mg kg^−1). Groups were balanced for age, sex, weight, and baseline BANA test results to the extent possible. Dogs were group housed according to dosing group in compliance with the recommendations of the CACC. Dogs were fed a standard commercial dry diet daily in the evenings with water provided ad libitum but not within 30 minutes of the start of anesthetic procedures.\nGingival Crevicular Fluid: GCF was collected from the gingival pockets at times following dosing ±30 minutes, as indicated. Eight sampling sites were identified per dog and four sites were used per timepoint. Sampling sites were isolated with a cotton roll and air‐dried. Gingival fluid collection strips (Periopaper™, Oraflow) were gently held with tweezers and placed into the pocket until resistance was felt. Strips were held in place for 30 seconds and then processed as described above for SGP isolation. […]"}, "[8]": {"experiment": "Plasma pharmacokinetics after oral administration in gelatin capsules", "type": "in vivo, Beagle dogs", "settings": "Beagle, dog; for bioavailability: po, 0.5 mg/kg", "experimental": "Aged Beagle dogs of both sexes ranging from 8 to 15 years of age, in generally good health and located in the Vivocore Inc dog colony, were utilized in this study. All procedures were reviewed and approved by Vivocore's Institutional Animal Care and Use Committee (IACUC) and were performed in accordance with the principles of the Animal for Research Act of Ontario and the guidelines of Canadian Council on Animal Care (CCAC). […] The detailed chemical synthesis and structure of compounds in the relevant series of lysine-gingipain inhibitors including COR388 can be found in PCT/2016/0061197. Detailed characterization of COR388 enzyme target binding, potency, and selectivity are previously described.1 Test article administered, COR388 HCl, was a solid powdered material. Dogs were dosed with neat compound hand-filled in gelatin capsules (size 1, Torpac) orally at the listed doses (free-base, corrected for salt form). All dogs utilized in studies were positive on previous BANA enzyme (BANAMet LLC, Ann Arbor, MI) testing of oral plaque samples (assay described below). In the first study, four dogs were dosed 10 mg kg^-1 q.d. with endpoints assessed after dosing and compared to those taken pre-dose in individual dogs. The second dose-response study was conducted with a randomized, blinded, matched-group design with 12 dogs. […] Groups were balanced for age, sex, weight, and baseline BANA test results to the extent possible. Dogs were group housed according to dosing group in compliance with the recommendations of the CACC. Dogs were fed a standard commercial dry diet daily in the evenings with water provided ad libitum but not within 30 minutes of the start of anesthetic procedures. For evaluation of pharmacokinetics parameters, approximately 2 mL of blood was collected at the indicated time points following test article administration into K2EDTA tubes and plasma was isolated for bioanalytical determination of plasma concentrations of COR388. A single intravenous dose of COR388 was administered in PBS at a dose of 1 mg kg^-1. Quantitation of COR388 in plasma samples following protein precipitation with mianserin added as an internal standard, was performed from the time points shown using a qualified LC-MS/MS method (AB Sciex 4000 QTrap). Plasma concentration versus time profiles were analyzed to determine pharmacokinetic parameters using noncompartmental methods (Phoenix® WinNonlin® 6.3, Pharsight Certara)."}}, "note": "Like-named read-outs stand apart in the source and are kept apart here."}
{"compound": "NCCCC[C@H](NC(=O)C1CCCC1)C(=O)COc1c(F)ccc(F)c1F", "note": "[COR388]", "values": [{"measurement": "mean decrease in baseline P. gulae DNA", "setting": "[1]; buccal cells, oral 10 mg kg^−1 once a day, after 14 days of dosing", "result": "> 80", "unit": "%"}, {"measurement": "P. gulae bacterial load over time compared to vehicle control", "setting": "[1]; oral 0.5 mg kg^−1 b.i.d. for 90 days, buccal cells (Figure 5A)", "result": "statistically significant reduction"}, {"measurement": "mean average pocket depth, all individual pockets", "setting": "[2]; P = .0156", "result": "reduction"}, {"measurement": "mean average pocket depth, pockets ≥3 mm at baseline or end of study, per dog", "setting": "[2]; P = .0332", "result": "significant reduction"}, {"measurement": "brain penetration", "setting": "[3]", "result": "brain penetrant"}, {"measurement": "active RgpB in SGP versus baseline day 1", "setting": "[4]", "result": "reduction"}, {"measurement": "drug resistance on chronic administration", "setting": "[5]", "result": "did not lead to drug resistance"}, {"measurement": "half-life", "setting": "[6]; read-out: elimination half-life (converted)", "result": "3.5 ± 0.6", "unit": "h"}, {"measurement": "clearance", "setting": "[6]; read-out: systemic clearance (CLS) (converted)", "result": 35, "unit": "mL/min/kg"}, {"measurement": "Vd", "setting": "[6]; read-out: volume distribution (Vss)", "result": "5.2 ± 1.3", "unit": "L/kg"}, {"measurement": "inhibition of baseline Kgp activity", "setting": "[7]; oral 0.5 mg kg^−1, after a single dose", "result": "roughly 50%"}, {"measurement": "Kgp activity compared to vehicle control", "setting": "[7]; oral 0.5 mg kg^−1 b.i.d. for 90 days", "result": "statistically significant reduction"}, {"measurement": "inhibition of baseline Kgp activity", "setting": "[7]; oral 0.5 mg kg^−1 b.i.d., after 28 days of dosing", "result": "near complete inhibition"}, {"measurement": "active Kgp available for COR553 probe binding", "setting": "[7]; oral 10 mg kg^−1 q.d., 2 hours after dosing on days 14 and 28", "result": "no active sites were available for probe binding"}, {"measurement": "Cmax", "setting": "[8]; oral 0.15 mg kg^−1 b.i.d. group, single dog with minimal Kgp inhibition, read-out: plasma Cmax of the one dog with lowest exposure", "result": 2.73, "unit": "ng/mL"}, {"measurement": "Tmax", "setting": "[8]; both sexes, 0.5 mg kg^-1 oral, single oral dose (Figure 2C), mean ± SD", "result": "2.17 ± 1.76", "unit": "h"}, {"measurement": "half-life", "setting": "[8]; both sexes, 0.5 mg kg^-1 oral, single oral dose (Figure 2C), mean ± SD, read-out: Apparent t1/2 (converted)", "result": "2.42 ± 0.236", "unit": "h"}, {"measurement": "concentration at 12 h", "setting": "[8]; both sexes, 12 hours after oral dosing of 0.5 mg kg^−1, read-out: mean trough plasma concentration (Cmin)", "result": 2.67, "unit": "ng/mL"}, {"measurement": "Cmax", "setting": "[8]; both sexes, oral 0.15 mg kg^−1 b.i.d. group, read-out: mean Cmax in dose group", "result": 9.74, "unit": "ng/mL"}, {"measurement": "AUC(0-t)", "setting": "[8]; both sexes, oral 0.5 mg kg^−1 administered b.i.d. for 6 days, read-out: AUC0-12 h", "result": 265, "unit": "ng·h/mL"}, {"measurement": "Cmax", "setting": "[8]; both sexes, oral 0.5 mg kg^−1 administered b.i.d. for 6 days, read-out: Cmax", "result": 66.6, "unit": "ng/mL"}, {"measurement": "bioavailability", "setting": "[8]; both sexes, 0.5 mg kg^-1 oral, single oral dose (Figure 2C), mean ± SD, read-out: F", "result": "105 ± 28.8", "unit": "%"}, {"measurement": "bioavailability", "setting": "[8]; both sexes, oral doses of 0.5 mg kg^−1 and higher, read-out: bioavailability (%F)", "result": 100, "unit": "%"}]}
